# Assay results reported in patent publication US20140158116A1, “INHIBITING TRPA1 FOR THE TREATMENT OF ASTHMA” (Cubist Pharmaceuticals, Inc., priority 2012, published 2014).
# Tested on: formalin-induced pain behavior
# Assay: Formalin-induced pain behavior in vivo rodent model
# Parameters: species or system rat
# Details: vehicle 88.6
# Excerpt: The data shown in Tables 3a, 3b, and 3c and FIG. 2 were obtained by administering a pharmaceutical composition comprising the compound of Formula (Ia) to rodents in the formalin-induced pain duration at various doses according to Example 5. Specifically, the data in Tables 3a, 3b, and 3c and FIG. 2 were obtained by intraperitoneal (i.p.) administration of compositions containing different concentrations of the compound of Formula (Ia), a comparator composition containing recited amounts of the comparator compound (e.g., 150 mg/kg of the comparator compound of Formula (II) in Table 3a) and a control composition containing the vehicle (e.g., without the compound of Formula (Ia) or a comparator compound).
# The compound of Formula (Ia) and the comparator compounds of Formula (II) and Formula (III) were tested in the formalin-induced pain test reported by Dubuisson et al., Pain 1977 December; 4(2):161-74 (incorporated herein by reference in its entirety). Dubuisson et al. (1977) describe a method for assessing pain and analgesia in rats and cats. Briefly, dilute formalin (50 μL of 3% formalin) is injected into the plantar surface of the hind paw. […] The individual responsible for counting the pain behaviors in a particular study is blinded to the treatment groups.
# Rats were treated with the HCl salt of Compound (Ia) at various doses (3, 10, 30, and 50 mg/kg, IP) or with the vehicle (IP).
structure (smiles),measurement,setting,value
C[C@H]1CCCN1c1ncc(-c2cccc(NC(=O)Cn3cnc4c3c(=O)n(C)c(=O)n4C)n2)cn1 [Formula (Ia)],Duration of Pain Behavior,3 mg/kg i.p.,82.3 s
same,Duration of Pain Behavior,10 mg/kg i.p.,85.8 s
same,Duration of Pain Behavior,30 mg/kg i.p.,49.8 s
same,Duration of Pain Behavior,50 mg/kg i.p.,5.9 s
